The results in this text go back to patent US7932262B2 (Novartis AG, priority 2006, dated 2011).

Like-named read-outs stand apart in the source and are kept apart here.

By IC50 is commonly meant the point on the concentration scale where inhibition reaches its midpoint.

Assay [1] has as its system PC-3 cells. Briefly: Cell Proliferation Assay (Cell Titer Glo), PC-3 cell line. The class given is cell-based. To be noted: PC3, read-out: CPEC50 PC3. The method in brief:
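PC-3 cells, 1000 cells/well, left to adhere 3-5 h, then exposed for 3 days at 37° C to compounds as 1:3 serial dilutions from 500× DMSO stocks diluted in growth medium. Medium then replaced with fresh medium and viability read by Cell Titer Glo luminescence.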

Assay [2] addresses T1, PDK1 kinase (Homo sapiens, UniProt O15530).
T1 sequence (O15530 1-556): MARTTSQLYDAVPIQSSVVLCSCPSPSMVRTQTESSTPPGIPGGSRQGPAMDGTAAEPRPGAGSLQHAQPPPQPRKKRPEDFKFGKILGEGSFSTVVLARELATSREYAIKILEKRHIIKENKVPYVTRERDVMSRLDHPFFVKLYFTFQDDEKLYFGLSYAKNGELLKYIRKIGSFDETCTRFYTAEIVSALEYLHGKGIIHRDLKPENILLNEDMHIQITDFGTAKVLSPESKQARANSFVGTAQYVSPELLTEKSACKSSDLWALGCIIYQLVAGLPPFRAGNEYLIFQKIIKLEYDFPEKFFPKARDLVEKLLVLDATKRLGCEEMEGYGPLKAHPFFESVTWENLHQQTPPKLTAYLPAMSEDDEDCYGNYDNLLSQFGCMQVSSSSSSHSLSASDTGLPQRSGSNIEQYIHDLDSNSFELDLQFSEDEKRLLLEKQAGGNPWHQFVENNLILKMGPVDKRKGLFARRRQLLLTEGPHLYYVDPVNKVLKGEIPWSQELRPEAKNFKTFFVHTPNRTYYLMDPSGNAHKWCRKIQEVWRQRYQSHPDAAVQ
Briefly: PDK1 Kinase Alpha Screen Assay. The class given is biochemical. To be noted: PDK1 Kinase Alpha Screen Assay; read-out: PDK1 IC50. The method in brief:
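Compound in DMSO added to PDK1-4 peptide; PDK1/ATP mix starts reaction (final 50 nM peptide, 10 uM ATP). Runs 3-18 hours, stopped with 90 mM EDTA buffer. Antibody/bead mix added, developed overnight at room temperature, then AlphaScreen signal read.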

[3] abbreviates: Homo sapiens, PC-3, Cell Proliferation Assay.

With `CC(=O)Nc1cc(NC(C)=O)cc(Nc2ncc3c(Cl)ccc(OC4CCNCC4)c3n2)c1` [Compound 382, N,N′-(5-(5-chloro-8-(piperidin-4-yloxy)quinazolin-2-ylamino)-1,3-phenylene)diacetamide], the EC50 in assay [1] (setting [3]) is 5 to 10 µM. Moreover, the IC50 in assay [2] is less than 5 µM.

`COc1ccc(C(F)(F)F)c2cnc(Nc3ccc(C(=O)N4CCOCC4)cc3)nc12` [Compound 383]: in assay [1] (setting [3]), the EC50 lay within 5 to 10 µM. Besides, in assay [2], the IC50 is less than 5 µM.

For the molecule `FC(F)(F)c1ccc(OC2CCNCC2)c2nc(Nc3ccc(N4CCOCC4)cc3)ncc12` [Compound 384, N-(4-morpholinophenyl)-8-(piperidin-4-yloxy)-5-(trifluoromethyl)quinazolin-2-amine], in assay [1] (setting [3]), the EC50 was 5 to 10 µM. Further, in assay [2], the IC50 is less than 5 µM.

Regarding `FC(F)(F)c1ccc(OC2CCNCC2)c2nc(Nc3ccc(N4CCOCC4)cc3)ncc12` [Compound 385, N-(4-morpholinophenyl)-8-(piperidin-4-yloxy)-5-(trifluoromethyl)quinazolin-2-amine], the EC50 in assay [1] (Cell Proliferation Assay) was less than 5 µM. The half-maximal inhibitory concentration (IC50) in assay [2] is less than 5 µM.

With `CC(C)N1CCC(Oc2cc(Br)cc3cnc(Nc4ccc(F)cc4)nc23)CC1` [Compound 389, 6-bromo-N-(4-fluorophenyl)-8-(1-isopropylpiperidin-4-yloxy)quinazolin-2-amine], the EC50 in assay [1] (setting [3]) is less than 5 µM. For the same molecule, the half-maximal inhibitory concentration (IC50) in assay [2] is less than 5 µM.

On to `Cc1ccc(C(=O)O)cc1-c1ccc2cnc(Nc3ccc(S(N)(=O)=O)cc3)nc2c1` [Compound 390, 4-methyl-3-(2-(4-sulfamoylphenylamino)quinazolin-7-yl)benzoic acid], for which the EC50 in assay [1] (setting [3]) was 5 to 10 µM. Also, the IC50 in assay [2] was less than 5 µM.

On to `c1cc(-c2ccc(NCCN3CCCC3)nc2)c2nc(Nc3ccc4[nH]cnc4c3)ncc2c1` [Compound 393, N-(1H-benzo[d]imidazol-5-yl)-8-(6-(2-(pyrrolidin-1-yl)ethylamino)pyridin-3-yl)quinazolin-2-amine], for which, in assay [1] (setting [3]), the EC50 is less than 5 µM. In addition, in assay [2], the IC50 is less than 5 µM.

With `COc1cccc(Nc2ncc3cccc(-c4ccc(NCCN5CCCC5)nc4)c3n2)c1` [Compound 395, N-(3-methoxyphenyl)-8-(6-(2-(pyrrolidin-1-yl)ethylamino)pyridin-3-yl)quinazolin-2-amine], the EC50 in assay [1] (setting [3]) was less than 5 µM. In addition, the 50% inhibitory concentration (IC50) in assay [2] is less than 5 µM.

`CC(=O)Nc1ccc(Nc2ncc3cccc(-c4ccc(NCCN5CCCC5)nc4)c3n2)cc1` [Compound 396, N-(4-(8-(6-(2-(pyrrolidin-1-yl)ethylamino)pyridin-3-yl)quinazolin-2-ylamino)phenyl)acetamide]: the EC50 in assay [1] (setting [3]) was 5 to 10 µM. Besides, the IC50 in assay [2] is less than 5 µM.

`N#Cc1cccc(Nc2ncc3cccc(-c4ccc(NCCN5CCCC5)nc4)c3n2)c1` [Compound 397, 3-(8-(6-(2-(pyrrolidin-1-yl)ethylamino)pyridin-3-yl)quinazolin-2-ylamino)benzonitrile]: the EC50 in assay [1] (setting [3]) was less than 5 µM. The half-maximal inhibitory concentration (IC50) in assay [2] was less than 5 µM.

In the case of `Clc1cccc(Nc2ncc3cccc(-c4ccc(NCCN5CCCC5)nc4)c3n2)c1` [Compound 398, N-(3-chlorophenyl)-8-(6-(2-(pyrrolidin-1-yl)ethylamino)pyridin-3-yl)quinazolin-2-amine], in assay [1] (setting [3]), the EC50 was less than 5 µM. Besides, the IC50 in assay [2] is less than 5 µM.

Take `O=S(=O)(c1cccc(Nc2ncc3cccc(-c4ccc(NCCN5CCCC5)nc4)c3n2)c1)N1CCOCC1` [Compound 399, N-(3-(morpholinosulfonyl)phenyl)-8-(6-(2-(pyrrolidin-1-yl)ethylamino)pyridin-3-yl)quinazolin-2-amine]: in assay [1] (setting [3]), the EC50 was less than 5 µM. In assay [2], the half-inhibitory concentration (IC50) is less than 5 µM.

As to `CNC(=O)Cc1ccc(Nc2ncc3cccc(-c4ccc(NCCN5CCCC5)nc4)c3n2)cc1` [Compound 400, N-methyl-2-(4-(8-(6-(2-(pyrrolidin-1-yl)ethylamino)pyridin-3-yl)quinazolin-2-ylamino)phenyl)acetamide], the EC50 in assay [1] (setting [3]) is less than 5 µM. In addition, the 50% inhibitory concentration (IC50) in assay [2] is less than 5 µM.

In the case of `CNC(=O)Cc1cccc(Nc2ncc3cccc(-c4ccc(NCCN5CCCC5)nc4)c3n2)c1` [Compound 401, N-methyl-2-(3-(8-(6-(2-(pyrrolidin-1-yl)ethylamino)pyridin-3-yl)quinazolin-2-ylamino)phenyl)acetamide], in assay [1] (setting [3]), the EC50 was less than 5 µM. For the same molecule, the IC50 in assay [2] was less than 5 µM.

For `CS(=O)(=O)c1cccc(Nc2ncc3cccc(-c4ccc(NCCN5CCCC5)nc4)c3n2)c1` [Compound 402, N-(3-(methylsulfonyl)phenyl)-8-(6-(2-(pyrrolidin-1-yl)ethylamino)pyridin-3-yl)quinazolin-2-amine], the EC50 in assay [1] (setting [3]) is 5 to 10 µM. Besides, the half-maximal inhibitory concentration (IC50) in assay [2] was less than 5 µM.

For the molecule `O=C(c1ccc(Nc2ncc3cccc(-c4ccc(NCCN5CCCC5)nc4)c3n2)cc1)N1CCOCC1` [Compound 403, morpholino(4-(8-(6-(2-(pyrrolidin-1-yl)ethylamino)pyridin-3-yl)quinazolin-2-ylamino)phenyl)methanone], the EC50 in assay [1] (setting [3]) was less than 5 µM. Besides, in assay [2], the concentration for half-maximal inhibition (IC50) was less than 5 µM.

On to `NS(=O)(=O)c1ccc(Nc2ncc3cccc(-c4cnc(NCCN5CCCC5)c(C(F)(F)F)c4)c3n2)cc1` [Compound 404, 4-(8-(6-(2-(pyrrolidin-1-yl)ethylamino)-5-(trifluoromethyl)pyridin-3-yl)quinazolin-2-ylamino)benzenesulfonamide], for which the EC50 in assay [1] (setting [3]) is less than 5 µM. For the same molecule, the IC50 in assay [2] is less than 5 µM.

As to `COc1ccc(Oc2cccc3cnc(Nc4ccc(S(N)(=O)=O)cc4)nc23)cn1` [Compound 410, 4-(8-(6-methoxypyridin-3-yloxy)quinazolin-2-ylamino)benzenesulfonamide], in assay [1] (setting [3]), the EC50 was less than 5 µM. Besides, in assay [2], the concentration for half-maximal inhibition (IC50) is less than 5 µM.

In the case of `NS(=O)(=O)c1ccc(Nc2ncc3cccc(Oc4ccc(F)nc4)c3n2)cc1` [Compound 413, 4-(8-(6-fluoropyridin-3-yloxy)quinazolin-2-ylamino)benzenesulfonamide], the EC50 in assay [1] (setting [3]) was less than 5 µM. Moreover, the IC50 in assay [2] is less than 5 µM.

`Nc1ccc(S(=O)(=O)N(CCN2CCCC2)c2ncc3cccc(OC4CCNCC4)c3n2)cc1` [Compound 422, 4-amino-N-(8-(piperidin-4-yloxy)quinazolin-2-yl)-N-(2-(pyrrolidin-1-yl)ethyl)benzenesulfonamide]: the EC50 in assay [1] (setting [3]) lay within 5 to 10 µM. The IC50 in assay [2] was 5 to 10 µM.

Turning to `CN1CCN(c2ccc(-c3cccc4cnc(Nc5ccc(N6CCOCC6)nc5)nc34)cn2)CC1` [Compound 423, 8-(6-(4-methylpiperazin-1-yl)pyridin-3-yl)-N-(6-morpholinopyridin-3-yl)quinazolin-2-amine], the EC50 in assay [1] (setting [3]) is less than 5 µM. The IC50 in assay [2] was less than 5 µM.

For the molecule `c1cc(-c2ccc(NCCN3CCCC3)nc2)c2nc(Nc3ccc(N4CCOCC4)nc3)ncc2c1` [Compound 424, N-(6-morpholinopyridin-3-yl)-8-(6-(2-(pyrrolidin-1-yl)ethylamino)pyridin-3-yl)quinazolin-2-amine], the EC50 in assay [1] (setting [3]) is less than 5 µM. Besides, in assay [2], the IC50 was less than 5 µM.

Regarding `O=S(=O)(c1ccc(Nc2ncc3cccc(-c4ccc(NCCN5CCCC5)nc4)c3n2)cc1)N1CCOCC1` [Compound 425, N-(4-(morpholinosulfonyl)phenyl)-8-(6-(2-(pyrrolidin-1-yl)ethylamino)pyridine-3-yl)quinazolin-2-amine], the EC50 in assay [1] (setting [3]) was less than 5 µM. Moreover, the IC50 in assay [2] is less than 5 µM.

Take `c1ccc(Nc2ncc3cccc(-c4ccc(NCCN5CCCC5)nc4)c3n2)cc1` [Compound 426, N-phenyl-8-(6-(2-(pyrrolidin-1-yl)ethylamino)pyridin-3-yl)quinazolin-2-amine]: the EC50 in assay [1] (setting [3]) is less than 5 µM. Further, the IC50 in assay [2] was less than 5 µM.

For `N#Cc1ccc(Nc2ncc3cccc(-c4ccc(NCCN5CCCC5)nc4)c3n2)cc1` [Compound 427, 4-(8-(6-(2-(pyrrolidin-1-yl)ethylamino)pyridin-3-yl)quinazolin-2-ylamino)benzonitrile], in assay [1] (setting [3]), the EC50 is less than 5 µM. In addition, the IC50 in assay [2] is less than 5 µM.

Consider `Fc1cc(F)cc(Nc2ncc3cccc(-c4ccc(NCCN5CCCC5)nc4)c3n2)c1` [Compound 428, N-(3,5-difluorophenyl)-8-(6-(2-(pyrrolidin-1-yl)ethylamino)pyridin-3-yl)quinazolin-2-amine], for which the EC50 in assay [1] (setting [3]) is less than 5 µM. The 50% inhibitory concentration (IC50) in assay [2] is less than 5 µM.

As to `NS(=O)(=O)c1ccc(Nc2ncc3c(Br)ccc(OC4CCNCC4)c3n2)cc1` [Compound 429, 4-(5-bromo-8-(piperidin-4-yloxy)quinazolin-2-ylamino)benzenesulfonamide], in assay [1] (setting [3]), the EC50 was 5 to 10 µM. In assay [2], the IC50 is less than 5 µM.

As for `O=S(=O)(c1ccc(Nc2ncc3c(Br)ccc(OC4CCNCC4)c3n2)cc1)N1CCOCC1` [Compound 430, 5-bromo-N-(4-(morpholinosulfonyl)phenyl)-8-(piperidin-4-yloxy)quinazolin-2-amine], the EC50 in assay [1] (setting [3]) was less than 5 µM. In addition, the 50% inhibitory concentration (IC50) in assay [2] is less than 5 µM.
